Experimental data from the NIST ThermoML archive (doi:10.1016/j.jct.2015.08.040).

What was measured:
[1] = 100 kPa, Liquid; for speed of sound: Frequency=2 MHz, Linear variable-path acoustic interferometer; for mass density: Vibrating tube method
[2] = xn = mol fraction of the nth substance listed; conditions: 100 kPa, Liquid; for speed of sound: Frequency=2 MHz, Linear variable-path acoustic interferometer; for mass density: Vibrating tube method

CCCCOCCO [2-butoxyethan-1-ol]
[1]
Conditions	mass density [kg/m3]	speed of sound [m/s]
298.15 K	896.46	1305
303.15 K	892.22	–
308.15 K	887.97	1275
313.15 K	883.7	–
318.15 K	879.42	–

OCc1ccccc1 [benzenemethanol]
[1]
Conditions	mass density [kg/m3]	speed of sound [m/s]
298.15 K	1041.05	1534.5
303.15 K	1037.15	–
308.15 K	1033.32	1496
313.15 K	1029.46	–
318.15 K	1025.59	–

COCCO [2-methoxyethan-1-ol] + OCc1ccccc1
[2], x2 = 0
Conditions	mass density [kg/m3]	speed of sound [m/s]
298.15 K	960.29	1341.6
303.15 K	955.84	–
308.15 K	951.16	1302
313.15 K	946.49	–
318.15 K	941.89	–

OCc1ccccc1 [benzenemethanol] + CCCCOCCO
[2], x1 = 1
Conditions	mass density [kg/m3]	speed of sound [m/s]
298.15 K	1041.05	1534.5
303.15 K	1037.15	–
308.15 K	1033.32	1496
313.15 K	1029.46	–
318.15 K	1025.59	–

OCc1ccccc1 [benzenemethanol] + CCOCCO
[2], x1 = 1
Conditions	mass density [kg/m3]	speed of sound [m/s]
298.15 K	1041.05	1534.5
303.15 K	1037.15	–
308.15 K	1033.32	1496
313.15 K	1029.46	–
318.15 K	1025.59	–

COCCO [2-methoxyethan-1-ol]
[1]
Conditions	mass density [kg/m3]	speed of sound [m/s]
298.15 K	960.29	1341.6
303.15 K	955.84	–
308.15 K	951.16	1302
313.15 K	946.49	–
318.15 K	941.89	–

CCOCCO [2-ethoxyethan-1-ol]
[1]
Conditions	mass density [kg/m3]	speed of sound [m/s]
298.15 K	925.36	1301.4
303.15 K	920.72	–
308.15 K	916.11	1274.8
313.15 K	911.47	–
318.15 K	906.9	–
